Assay results reported in ChEMBL document CHEMBL4138146, “A Schmidt rearrangement-mediated synthesis of novel tetrahydro-benzo[1,4]diazepin-5-ones as potential anticancer and antiprotozoal agents” (Eur J Med Chem, 2017).

How the values were obtained:
Format in all cases: functional
HCT-116 = assay: Growth inhibition of human HCT116 cells assessed as cell growth at 10 uM incubated for 48 hrs by sulforhodamine B assay relative to control; conditions: HCT-116, 48 h, read-out: Activity
SNB-75 = assay: Growth inhibition of human SNB75 cells assessed as cell growth at 10 uM incubated for 48 hrs by sulforhodamine B assay relative to control; conditions: SNB-75, 48 h, read-out: Activity
SN12C = assay: Growth inhibition of human SN12C cells assessed as cell growth at 10 uM incubated for 48 hrs by sulforhodamine B assay relative to control; conditions: read-out: Activity
NCI-H460 = assay: Growth inhibition of human NCI-H460 cells assessed as cell growth at 10 uM incubated for 48 hrs by sulforhodamine B assay relative to control; conditions: NCI-H460, 48 h, read-out: Activity
CAKI-1 = assay: Growth inhibition of human Caki1 cells assessed as cell growth at 10 uM incubated for 48 hrs by sulforhodamine B assay relative to control; conditions: CAKI-1, 48 h, read-out: Activity
HCC 2998 = assay: Growth inhibition of human HCC2998 cells assessed as cell growth at 10 uM incubated for 48 hrs by sulforhodamine B assay relative to control; conditions: HCC 2998, 48 h, read-out: Activity
SW-620 = assay: Growth inhibition of human SW620 cells assessed as cell growth at 10 uM incubated for 48 hrs by sulforhodamine B assay relative to control; conditions: SW-620, 48 h, read-out: Activity
NCI-H522 = assay: Growth inhibition of human NCI-H522 cells assessed as cell growth at 10 uM incubated for 48 hrs by sulforhodamine B assay relative to control; conditions: NCI-H522, 48 h, read-out: Activity
LOX IMVI = assay: Growth inhibition of human LOXIMVI cells assessed as cell growth at 10 uM incubated for 48 hrs by sulforhodamine B assay relative to control; conditions: read-out: Activity
RPMI-8226 = assay: Growth inhibition of human RPMI8226 cells assessed as cell growth at 10 uM incubated for 48 hrs by sulforhodamine B assay relative to control; conditions: RPMI-8226, 48 h, read-out: Activity
HOP-92 = assay: Growth inhibition of human HOP92 cells assessed as cell growth at 10 uM incubated for 48 hrs by sulforhodamine B assay relative to control; conditions: HOP-92, 48 h, read-out: Activity
KM12 = assay: Growth inhibition of human KM12 cells assessed as cell growth at 10 uM incubated for 48 hrs by sulforhodamine B assay relative to control; conditions: KM12, 48 h, read-out: Activity
786-0 = assay: Growth inhibition of human 786-0 cells assessed as cell growth at 10 uM incubated for 48 hrs by sulforhodamine B assay relative to control; conditions: 786-0, 48 h, read-out: Activity
COLO 205 = assay: Growth inhibition of human COLO205 cells assessed as cell growth at 10 uM incubated for 48 hrs by sulforhodamine B assay relative to control; conditions: COLO 205, 48 h, read-out: Activity
ACHN = assay: Growth inhibition of human ACHN cells assessed as cell growth at 10 uM incubated for 48 hrs by sulforhodamine B assay relative to control; conditions: read-out: Activity
BT-549 = assay: Growth inhibition of human BT549 cells assessed as cell growth at 10 uM incubated for 48 hrs by sulforhodamine B assay relative to control; conditions: BT-549, 48 h, read-out: Activity
Hs-578T = assay: Growth inhibition of human Hs 578T cells assessed as cell growth at 10 uM incubated for 48 hrs by sulforhodamine B assay relative to control; conditions: read-out: Activity
SF-268 = assay: Growth inhibition of human SF268 cells assessed as cell growth at 10 uM incubated for 48 hrs by sulforhodamine B assay relative to control; conditions: SF-268, 48 h, read-out: Activity
NCI-H226 = assay: Growth inhibition of human NCI-H226 cells assessed as cell growth at 10 uM incubated for 48 hrs by sulforhodamine B assay relative to control; conditions: NCI-H226, 48 h, read-out: Activity
U-251 = assay: Growth inhibition of human U251 cells assessed as cell growth at 10 uM incubated for 48 hrs by sulforhodamine B assay relative to control; conditions: U-251, 48 h, read-out: Activity
RXF 393 = assay: Growth inhibition of human RXF393 cells assessed as cell growth at 10 uM incubated for 48 hrs by sulforhodamine B assay relative to control; conditions: RXF 393, 48 h, read-out: Activity
CCRF-CEM = assay: Growth inhibition of human CCRF-CEM cells assessed as cell growth at 10 uM incubated for 48 hrs by sulforhodamine B assay relative to control; conditions: read-out: Activity
DU-145 = assay: Growth inhibition of human DU145 cells assessed as cell growth at 10 uM incubated for 48 hrs by sulforhodamine B assay relative to control; conditions: DU-145, 48 h, read-out: Activity
OVCAR-5 = assay: Growth inhibition of human OVCAR5 cells assessed as cell growth at 10 uM incubated for 48 hrs by sulforhodamine B assay relative to control; conditions: OVCAR-5, 48 h, read-out: Activity
HT-29 = assay: Growth inhibition of human HT-29 cells assessed as cell growth at 10 uM incubated for 48 hrs by sulforhodamine B assay relative to control; conditions: HT-29, 48 h, read-out: Activity
NCI/ADR-RES = assay: Growth inhibition of human NCI/ADR-RES cells assessed as cell growth at 10 uM incubated for 48 hrs by sulforhodamine B assay relative to control; conditions: read-out: Activity
NCI-H23 = assay: Growth inhibition of human NCI-H23 cells assessed as cell growth at 10 uM incubated for 48 hrs by sulforhodamine B assay relative to control; conditions: NCI-H23, 48 h, read-out: Activity
SK-MEL-5 = assay: Growth inhibition of human SK-MEL-5 cells assessed as cell growth at 10 uM incubated for 48 hrs by sulforhodamine B assay relative to control; conditions: SK-MEL-5, 48 h, read-out: Activity
HOP-62 = assay: Growth inhibition of human HOP62 cells assessed as cell growth at 10 uM incubated for 48 hrs by sulforhodamine B assay relative to control; conditions: HOP-62, 48 h, read-out: Activity
A498 = assay: Growth inhibition of human A498 cells assessed as cell growth at 10 uM incubated for 48 hrs by sulforhodamine B assay relative to control; conditions: A498, 48 h, read-out: Activity
NCI-H322M = assay: Growth inhibition of human NCI-H322M cells assessed as cell growth at 10 uM incubated for 48 hrs by sulforhodamine B assay relative to control; conditions: read-out: Activity
OVCAR-8 = assay: Growth inhibition of human OVCAR8 cells assessed as cell growth at 10 uM incubated for 48 hrs by sulforhodamine B assay relative to control; conditions: OVCAR-8, 48 h, read-out: Activity
SK-MEL-2 = assay: Growth inhibition of human SK-MEL-2 cells assessed as cell growth at 10 uM incubated for 48 hrs by sulforhodamine B assay relative to control; conditions: SK-MEL-2, 48 h, read-out: Activity

In the case of `CCCCOc1nc2ccc(OC)cc2cc1C1CNC(=O)c2ccccc2N1` (stereo not drawn), the growth at 10 µM (HCT-116) was 85.3%, the growth at 10 µM (SNB-75) was 89.5% and the growth at 10 µM (SN12C) was 91.5%. It also gave a growth at 10 µM (NCI-H460) of 97.2%, a growth at 10 µM (CAKI-1) of 77.7% and a growth at 10 µM (HCC 2998) of 123%. For the same compound, the growth at 10 µM (SW-620) was 97.6%, the growth at 10 µM (NCI-H522) was 77.4% and the growth at 10 µM (LOX IMVI) was 104%. The growth at 10 µM (RPMI-8226) was 88.9%, the growth at 10 µM (HOP-92) was 90.4% and the growth at 10 µM (KM12) was 96.6%. For the same compound, the growth at 10 µM (786-0) was 96.6%, the growth at 10 µM (COLO 205) was 106% and the growth at 10 µM (ACHN) was 97.3%. For the same compound, the growth at 10 µM (BT-549) was 98.1%, the growth at 10 µM (Hs-578T) was 105% and the growth at 10 µM (SF-268) was 99%. For the same compound, the growth at 10 µM (NCI-H226) was 87.1%, the growth at 10 µM (U-251) was 106% and the growth at 10 µM (RXF 393) was 109%. It also gave a growth at 10 µM (CCRF-CEM) of 106%, a growth at 10 µM (DU-145) of 108% and a growth at 10 µM (OVCAR-5) of 107%. It also gave a growth at 10 µM (HT-29) of 100%, a growth at 10 µM (NCI/ADR-RES) of 109% and a growth at 10 µM (NCI-H23) of 99.2%. For the same compound, the growth at 10 µM (SK-MEL-5) was 86.9%, the growth at 10 µM (HOP-62) was 96% and the growth at 10 µM (A498) was 88.5%. The growth at 10 µM (NCI-H322M) was 110%, the growth at 10 µM (OVCAR-8) was 102% and the growth at 10 µM (SK-MEL-2) was 88.7%.
